Tests used:
[1] = test system: SPAK Ser373, NKCC1 Thr203/207/212 and KCCs phosphorylation; test: Phosphorylation immunoblot in HEK293 cells; format: cell-based, human
Procedure: HEK293 (human embryonic kidney 293) cells were cultured on 10-cm-diameter dishes in DMEM supplemented with 10% (v/v) foetal bovine serum, 2 mM L-glutamine, 100 U/ml penicillin and 0.1 mg/ml streptomycin. HEK293 cells were transfected with a mixture of 20 μl of 1 mg/ml polyethylenimine (Polysciences) and 5-10 μg of plasmid DNA as described previously (Durocher et al., 2002). 36 hours post-transfection cells were stimulated with either control isotonic or hypotonic medium for a period of 30 minutes. Cells were lysed in 0.3 mL of ice-cold lysis buffer/dish, lysates were clarified by centrifugation at 4° C. for 15 minutes at 26,000 g and the supernatant aliquots were frozen in liquid nitrogen and stored at −20° C. Protein concentrations were determined using the Bradford method. Cells were treated with the indicated concentrations of the SPAK/OSR1 inhibitors. […] Hypotonic low chloride buffer was 67.5 mM sodium-gluconate, 2.5 mM potassium-gluconate, 0.25 mM CaCl2), 0.25 mM MgCl2, 0.5 mM Na2HPO4, 0.5 mM Na2SO4 and 7.5 mM HEPES (pH 7.5).
The membranes were incubated for 30 min with TBST (Tris-buffered saline, 0.05% Tween-20) containing 5% (w/v) skim milk. […] After repeating the washing steps, signals were detected with enhanced chemiluminescence reagent. […] The densities of bands were measured with ImageJ. […]

[2] = test system: rats post-IVH (CSF hypersecretion); test: Rate of CSF production, post-hemorrhagic hydrocephalus model; format: in vivo, rat; conditions: ICV treatment for 48 hr
Procedure: All animal experiments were approved by the Institutional Animal Care and Use Committee (IACUC) of the Yale University, and in accordance with the guidelines and regulations in the NIH Guide for the Care and Use of Laboratory Animals. Male Wistar rats (Harlan, Indianapolis, Ind., USA), age 8 weeks (220-230 g), were anesthetized (60 mg/kg ketamine plus 7.5 mg/kg xylazine, IP) and allowed to breathe room air spontaneously. Body temperature was maintained at 37±1° C. (Harvard Apparatus, Holliston, Mass., USA) throughout the course of the experiments. PHH was modeled using a modified protocol based on previously described methods (Karimy et al. (2015) Nature medicine 23: 997-1003; Simard et al. (2011) Transl Stroke Res 2: 227-231). […]
Rates of CSF production were measured using the method we recently published (Karimy et al. (2015) Nature medicine 23: 997-1003). […] The volume (V) of CSF that forms at a given timepoint is calculated as: V (mm^3)=π·r^2·d, where r is the radius of the capillary tube and d is the distance CSF traveled within the capillary. The rate of CSF formation (μL/min) can be calculated from the slope of the volume-time relationship. A baseline rate of spontaneous CSF secretion (no drug infusion) was calculated over 30 minutes prior to drug infusion, then compared to the calculated rate of CSF formation following 30 minutes of ZT-1a infusion. […]

Cc1cc(C(C#N)c2ccc(Cl)cc2)c(Cl)cc1NC(=O)c1cc(Cl)ccc1O (stereo not drawn) [ZT-1a, 5-chloro-N-(5-chloro-4-((4-chlorophenyl)(cyano)methyl)-2-methylphenyl)-2-hydroxy-benzamide]
concentration inhibiting phosphorylation of SPAK Ser373, NKCC1 Thr203/207/212 and KCCs [1]: 3 µM | effect on SPAK/OSR1 Ser373/Ser325 and NKCC1 Thr203/Thr207/Thr212 phosphorylation ([1]; dose-dependent (1-10), hypotonic low Cl- and isotonic conditions): markedly inhibited | decrease of post-IVH CSF hypersecretion [2]: ~57±6.2%

— patent US11414379B2, “SPAK kinase inhibitors as neuroprotective agents” (United States Government as represented by the Department …, priority 2018, dated 2022)
